The values that follow come from patent publication US20100324081A1, “PREVENTIVE, INHIBITOR OR REMEDY FOR CEREBRAL ANEURYSM COMPRISING IBUDILAST AS AN ACTIVE INGREDIENT” (Kyorin Pharmaceutical Co., Ltd., priority 2007, published 2010).

For experiment [1], the system named is rat cerebral aneurysm model. Description: Cerebral aneurysm formation-inhibitory effect on rat cerebral aneurysm model (vascular corrosion cast staging). The following applies: for Analysis χ^2 Test (P vs control group) / Number of cases at Stage 1 (irregularity of vascular endothelia at the branched portion) / Number of cases at Stage 2 (slight outward projection) / Number of cases at Stage 0 (no irregularity, no outward projection): 12 weeks, 15 cases. It is filed as in vivo, Sprague-Dawley rats. The protocol:
Cerebral aneurysm models of rats were prepared, Ibudilast was administered to these animals at a dose of […] through the oral route.
In this experiment, 7-week-old Sprague-Dawley rats were used and the posterior nenal arteries at both sides of test animal were ligated and the right side common carotid artery of each test animal was likewise ligated (the preparation of a cerebral aneurysm model of rat: see Non-Patent Document 7 specified above). After one week from the foregoing treatments, the administration of a 1% physiological saline was initiated. Then, the ovaries of each test animal on the both sides were excised after 4 weeks from the initial operation. Starting from the day subsequent to the excision, a 5% gum Arabic solution (control group) and Ibudilast were orally administered to these test animals through the use of an oral probe (sound).
The numbers of cases examined herein were as follows:
Control Group (the animal group administered at a dose of 0 mg/kg/day): 20 cases;
Ibudilast (30 mg/kg/day)-Administered Group: 15 cases; and
Ibudilast (60 mg/kg/day)-Administered Group: 15 cases.
After 12 weeks from the initiation of the administration, the rats were sacrificed, and a resin (curable resin: Baston No. 17 Plastic (manufactured and sold by Polyscience Inc.)) was injected into the blood vessels of the animals to thus form a vascular corrosion cast. Then, each branched portion of the left anterior cerebral artery-olfactory artery present in the vascular corrosion cast was examined using an electron microscope. The evaluation of the results obtained was carried out under the blind conditions to thus estimate the progress of the formation of any cerebral aneurysm according to the following criteria:
Evaluation Criteria of Vascular Corrosion Cast:
Stage 0: There was not observed any […] irregularity and any outward projection;
Stage 1: There was observed irregularity of vascular endothelia at the branched portion;
Stage 2: There was observed a slight and outward projection; and
Stage 3: There was observed a substantial and outward projection or a projection which reaches even to the apex of the branched portion.

The test system of experiment [2] is female rat animal model used for generating cerebral aneurysm. The following applies: hormone substitution therapy, estrogen-deficient female rat model; Non-Patent Document 7; cited from earlier work.

Regarding `CC(C)C(=O)c1c(C(C)C)nn2ccccc12` [Ibudilast], in experiment [1] (Ibudilast 30 mg/kg/day oral), the “Analysis χ^2 Test (P vs control group)” value is given as “P < 0.005”, the “Number of cases at Stage 1 (irregularity of vascular endothelia at the branched portion)” value is 7 and the “Number of cases at Stage 2 (slight outward projection)” value is 3. Besides, the “Number of cases at Stage 0 (no irregularity, no outward projection)” value in experiment [1] (Ibudilast 30 mg/kg/day oral, vascular corrosion cast, left anterior cerebral artery-olfactory artery branch) was 4. Moreover, in experiment [1] (Ibudilast 60 mg/kg/day oral), the “Analysis χ^2 Test (P vs control group)” value is given as “P < 0.005”; the “Number of cases at Stage 0 (no irregularity, no outward projection)” value amounted to 4; the “Number of cases at Stage 1 (irregularity of vascular endothelia at the branched portion)” value turned out to be 6; the “Number of cases at Stage 2 (slight outward projection)” value is given as 5. In addition, the “Effect on cerebral aneurysm formation (overall, in words)” value in experiment [1] (cerebral aneurysm model of rat, oral administration) was “excellent effect of cerebral aneurysm formation-preventive or suppression”.
`C[C@]12CC[C@@H]3c4ccc(O)cc4CC[C@H]3[C@@H]1CC[C@@H]2O` [17β-estradiol]: in experiment [2], the “Effect on cerebral aneurysm formation (in words)” value was “the formation of any cerebral aneurysm is suppressed”.
